Activity calls are given as the source filed them. No rule for the calls is given here. Bounds are passed on as bounds.

In PubChem BioAssay AID651569 (Sanford-Burnham Center for Chemical Genomics, 2012) one finds IC50 data, which are given here for 84 molecules.

In the assay the test system is luminescent cytotoxicity (cell viability) counter-screen. The experiment in a line: cytotoxicity of Gli-SUFU antagonist hits, dose response, cytotoxicity control for Gli-SUFU antagonist project, cell-based, luminescence, uHTS hits (AID 651569).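 Also: compound exposure lasted overnight before the viability readout.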
The term IC50 denotes the concentration at which inhibition is half-maximal. As to `C#CC[N+](C)(C)CCCCCCCCCCCC`, the IC50 was > 20 µM (inactive).

As for `O=C(c1cccc(S(=O)(=O)N2CCN(c3ccccc3)CC2)c1)N1CCCC(C(F)(F)F)C1` (centres undefined), the IC50 was > 20 µM (inactive). In the case of `CCn1c(=O)cc(SCC(=O)N2CCN(C3CCCCC3)CC2)c2ccccc21` it was > 20 µM (inactive); in that of `CCCCNc1c(-c2ccc(OC)c(Sc3ccc(OC)cc3)c2)nc2ccccn12`, 12.9 µM. With `CCCC(C)C(=O)Nc1nc(C)c(-c2csc(Nc3ccc(Cl)cc3)n2)s1` (centres undefined) the figure was > 20 µM (inactive); with `COc1cccc(/C=C/c2ccncc2)c1OC`, > 20 µM (inactive). As to `COc1ccc(NS(=O)(=O)c2ccc(N3CCCCC3)c(N)c2)cc1`, the IC50 was > 20 µM (inactive). In the case of `COc1ccc(N2CCN(c3ncnc4c3[nH]c3ccccc34)CC2)cc1` it was > 20 µM (inactive); in that of `COCCOc1nc2c(c(=O)n(C)c(=O)n2C)n1Cc1cccc(OC)c1`, > 20 µM (inactive); in that of `Cc1ccc(C(=O)N2CCN3C(=O)c4ccccc4C23c2ccc(Cl)cc2)cc1` (centres undefined), > 20 µM (inactive). In the case of `O=C(C[C@@H]1C/C=C\C[C@H](NC(=O)OCC2c3ccccc3-c3ccccc32)C(=O)OC[C@H]2CCCN2C1=O)N[C@H](CO)Cc1ccccc1` it was > 20 µM (inactive); in that of `O=C(Cn1c(-c2ccccc2)c[n+]2ccsc12)c1ccc(Br)cc1`, > 20 µM (inactive). Take `O=c1c2ccccc2nc2n1C(CSCc1cccc(C(F)(F)F)c1)CS2` (centres undefined): the IC50 is > 20 µM (inactive).

Turning to `CCc1nc(N)nc(N)c1-c1ccc(N(C)Cc2ccccc2)c([N+](=O)[O-])c1`, the IC50 was 18.4 µM. In the case of `CCOC(=O)c1ccc(NC(=O)Cn2cnc3cc(C)c(C)cc32)cc1` it was > 20 µM (inactive); in that of `Cc1ccc(S(=O)(=O)N2CCN(C(=O)c3ccc(S(=O)(=O)N4CCCC4)cc3)CC2)cc1`, > 20 µM (inactive). `COc1ccc(-n2c(-c3ccc(Cl)cc3)c[n+]3c2CCc2ccccc2-3)cc1`: the IC50 is > 20 µM (inactive). On to `Cc1cccnc1CN1CCN(C(=O)c2cc(COc3ccc4ncccc4c3)on2)CC1`, for which the IC50 was > 20 µM (inactive). In the case of `COc1ccc(CC(=O)Nc2cccc(S(=O)(=O)N3CCCCCC3)c2)cc1OC`, the IC50 is > 20 µM (inactive). Consider `O=C(C1CCCCC1)N1CCN(c2ccnc3cc(Cl)ccc23)CC1`, for which the IC50 was > 20 µM (inactive). Take `Cc1ccc(-c2csc(NC(=O)c3c(C)noc3C)n2)s1`: the IC50 was > 20 µM (inactive).

Turning to `COc1ccc(-c2c(C#N)c(N)nc3c2CCc2ccccc2-3)cc1OC`, the IC50 is 8.1 µM. Consider `O=C(c1cc2sccc2n1Cc1ccc(F)cc1)N1CCN(c2nc3ccccc3s2)CC1`, for which the IC50 was > 20 µM (inactive). For the molecule `COc1ccc(CNCC(O)COc2cccc3c2OC(C)(C)C3)cc1` (centres undefined), the IC50 is > 20 µM (inactive).

For `O=C(/C=C/c1ccco1)Nc1ccc(-c2nc3ccccc3[nH]2)cc1`, the IC50 is > 20 µM (inactive). In the case of `Cc1ccc(NCC(=O)Nc2cccc(S(=O)(=O)N(C)C)c2)cc1S(=O)(=O)N1CCCCCC1` it was > 20 µM (inactive); in that of `COc1ccccc1N1CCN(c2ncc(C(=O)N3CCN(c4cccc(Cl)c4)CC3)c3ccccc23)CC1`, > 20 µM (inactive); in that of `CC(C)=CCC/C(C)=C/CNC(=O)C[C@H]1C[C@H](C(=O)N2CCOCC2)[C@@]2(C)c3[nH]c4cc(CCC(=O)N(C)C)ccc4c3CCN2C1=O`, > 20 µM (inactive). With `O=C(N[C@H]1C/C=C\C[C@@H](CC(=O)N(CCO)Cc2ccccc2)C(=O)NC[C@H](c2ccccc2)OC1=O)OCC1c2ccccc2-c2ccccc21` the figure was > 20 µM (inactive); with `CCC(C)CCN1C(N(C)C)=NC[C@@H]1CC(C)C` (some centres undefined), > 20 µM (inactive); with `Cc1ccc(O)c(NC(=O)COc2cc(C)ccc2C)c1`, > 20 µM (inactive). Take `CCOC(=O)CSc1c(-c2cccs2)[nH]c2ccccc12`: the IC50 is > 20 µM (inactive).

For `CC1CCCCC1NS(=O)(=O)c1ccc(S(=O)(=O)NCc2ccncc2)cc1` (centres undefined), the IC50 was > 20 µM (inactive). As to `Cc1ccc(C2=C(CC(=O)O)C(=O)CC2)cc1`, the IC50 is > 20 µM (inactive).

As for `O=S(=O)(NCc1ccncc1)c1ccc(S(=O)(=O)NCC2CCCO2)cc1` (centres undefined), the IC50 was > 20 µM (inactive). On to `Cc1cc(-c2ccccc2)cc(-c2ccccc2)[n+]1C`, for which the IC50 is > 20 µM (inactive). Regarding `Cc1cccc(C)c1NC(=S)N(CCN1CCCCCC1)Cc1ccco1`, the IC50 is > 20 µM (inactive).

As to `CCCN(CCC)CCNC(=O)c1cc2c(=O)n(C)c3ccccc3c2n1C`, the IC50 is > 20 µM (inactive). For `O=C(Nc1cccc(C(F)(F)F)c1)C1CCN(S(=O)(=O)c2ccc(N3CCCC3=O)cc2)CC1`, the IC50 was > 20 µM (inactive).

In the case of `COc1ccc(NS(=O)(=O)c2ccc(NC(C)=O)cc2)cc1OC`, the IC50 is > 20 µM (inactive). In the case of `CCCN1CCC(=O)N([C@H](CSc2ccc(OC)cc2)Cc2ccccc2)CC1` it was > 20 µM (inactive); in that of `O=C(Nc1nc(-c2cccs2)cs1)c1cccc(S(=O)(=O)N2CCCCCC2)c1`, > 20 µM (inactive); in that of `C/C(=N\Nc1ccc(Cl)nn1)c1ccccc1O`, > 20 µM (inactive). As for `CNc1ccccc1C(C)(C)c1cc(-c2cccc(Br)c2)no1`, the IC50 was > 20 µM (inactive). Consider `CCN1C(=O)CCN(C2CCCC2)c2nc(Nc3ccc(C(=O)NC4CCN(C)CC4)cc3OC)ncc21`, for which the IC50 was > 20 µM (inactive). Take `CCOc1ccc(-c2cc(C)[n+](CCO)c(-c3ccc(OCC)cc3)c2)cc1`: the IC50 is > 20 µM (inactive). For the molecule `C[N+]1(CC(=O)OC2CCCCCCCCCCC2)CCCC1`, the IC50 was > 20 µM (inactive).

Consider `Cc1cc(C)c[n+](C(C)C(=O)c2ccc(-c3ccccc3)cc2)c1` (centres undefined), for which the IC50 is > 20 µM (inactive). In the case of `O=C(Cn1cc(C(=O)C2CC2)c2ccccc21)Nc1ccccc1Cl` it was > 20 µM (inactive); in that of `CCNc1nc(CN2CCCCC2)nc2scc(-c3ccccc3)c12`, 15.6 µM. In the case of `Cc1ccc(NC(=O)COc2ccccc2C(N)=O)cc1S(=O)(=O)N1CCCCCC1` it was 19.8 µM; in that of `O=C(N[C@@H]1C/C=C\C[C@@H](CC(=O)N(CCO)Cc2ccccc2)C(=O)NCCOC1=O)OCC1c2ccccc2-c2ccccc21`, > 20 µM (inactive). In the case of `COc1ccc(NS(=O)(=O)c2ccc(N3CCOCC3)c(N)c2)cc1` it was > 20 µM (inactive); in that of `CC(=O)N1c2ccc(S(=O)(=O)N3CCC(C(=O)N4CCCCC4)CC3)cc2CC1C` (centres undefined), > 20 µM (inactive). `Cc1cc(Br)c(S(=O)(=O)NCc2ccncc2)cc1C`: the IC50 was > 20 µM (inactive). Regarding `COc1ccccc1CCNC(=O)C(=O)NCCC1CCCCN1S(=O)(=O)c1cccs1` (centres undefined), the concentration for half-maximal inhibition (IC50) was 13.1 µM. As to `CC(C)(C)c1ccc(CN2C3=NCCCN3c3ccccc32)cc1`, the IC50 was 19.1 µM. With `COc1ccc(Nc2nc(N3CCOCC3)nc(N3CCOCC3)n2)c(OC)c1` the figure was > 20 µM (inactive). On to `Cc1c(C(C)C)c(=O)n(-c2ccc(S(=O)(=O)NC3CCCCC3)cc2)n1C`, for which the half-inhibitory concentration (IC50) is 9.32 µM. In the case of `COc1ccc(C2=[N+](C)CCn3cccc32)c(OC)c1` it was > 20 µM (inactive); in that of `FC(F)Oc1ccc(-n2cc(-c3ccccc3)[n+]3c2CCCCC3)cc1`, > 20 µM (inactive). With `Cc1c(CCOC(=O)C23CC4CC(CC(C)(C4)C2)C3)sc[n+]1Cc1ccccc1` the figure was > 20 µM (inactive); with `CCCCOc1ncnc2c1[nH]c1ccc(F)cc12`, > 20 µM (inactive). In the case of `CC(C)CC(NC(=O)CCCNC(=O)CCC(=O)OC1O[C@H]2OC3(C)CC[C@H]4[C@H](C)CCC(C1C)C24OO3)C(=O)O` (some centres undefined), the IC50 was > 20 µM (inactive). With `CCN(CC)S(=O)(=O)c1ccc(S(=O)(=O)Nc2c(C)nn(C)c2C)cc1`, the IC50 was > 20 µM (inactive).

As to `CCCCOC(=O)c1[nH]c2c(c1C)C(=O)CC(c1cc(OC)c(OC)c(OC)c1)C2` (centres undefined), the IC50 is > 20 µM (inactive). With `COCCNC(=O)CSCc1nc(-c2ccc(SC)cc2)oc1C` the figure was > 20 µM (inactive). As to `Cc1ccc(C)c(-c2csc(NC(=O)C3=COCCO3)n2)c1`, the IC50 was > 20 µM (inactive). In the case of `COc1ccc(NC(=S)N2CCC(Cc3ccccc3)CC2)cc1`, the IC50 is > 20 µM (inactive). With `Cc1nnsc1C(=O)NC1CCCc2c1cnn2-c1ccc(F)cc1F` (centres undefined) the figure was > 20 µM (inactive); with `CCOC(CN=c1nc(N(C)C)ss1)OCC`, 18.6 µM; with `CC1CN(S(=O)(=O)c2ccc(C(=O)Nc3nc(-c4cc5ccccc5o4)cs3)cc2)CC(C)O1` (centres undefined), > 20 µM (inactive). With `C(#Cc1ccccc1)C[N+]1(CC#Cc2cccc3ccccc23)CCCC1` the figure was > 20 µM (inactive); with `O=C(c1cc(COc2cccc3cnccc23)on1)N1CCCC(CCCO)C1` (centres undefined), > 20 µM (inactive). With `O=C(c1ccc(Cl)cc1)N1CCN(c2ccnc3cc(Cl)ccc23)CC1` the figure was > 20 µM (inactive); with `O=C(c1cnc(N2CCN(c3ccccn3)CC2)c2ccccc12)N1CCN(c2cccc(Cl)c2)CC1`, > 20 µM (inactive); with `Cc1ccsc1CNc1ncnc2ccc(-c3c(C)noc3C)cc12`, > 20 µM (inactive). For `CCC(C(=O)NCCC(C)C)n1ccc2cc(S(=O)(=O)N3CCCCC3)ccc21` (centres undefined), the IC50 was > 20 µM (inactive). On to `Cc1nn(-c2ccc(NC(=O)c3ccncc3)cc2)c(C)c1Cl`, for which the IC50 is > 20 µM (inactive).

For the molecule `COc1ccc(CN(C)Cc2nc(Cc3cccc(F)c3)no2)c2cccnc12`, the IC50 is > 20 µM (inactive).

`CCc1cc(C(=O)NC2CCCN(Cc3ccccc3F)C2)n(C)n1` (centres undefined): the IC50 was > 20 µM (inactive).

Consider `CCc1ccccc1NC(=S)N=Nc1c(O)n(C)c2ccc(S(=O)(=O)N3CCOCC3)cc12`, for which the IC50 is > 20 µM (inactive). As to `C=CCNc1nc2c(c(=O)n(C)c(=O)n2C)n1Cc1ccc(F)cc1`, the IC50 is > 20 µM (inactive). With `COc1ccc(-c2nn(-c3ccccc3)cc2/C=N/NC(=O)c2ccc(Br)o2)cc1` the figure was > 20 µM (inactive).
